Source: patent publication US9931327B2, “Derivatives of 1-phenyl-2-pyridinyl alkyl alcohols as phosphodiesterase inhibitors” (Chiesi Farmaceutici S.p.A., priority 2011, dated 2018)
Read-outs that look alike come from different tables or passages of the source.

Tested on: LPS-induced TNF-α release in peripheral blood mononuclear cells (PBMCs)
Assay: In vitro determination of PDE4 inhibitory activity in the PBMCs assay (LPS-induced TNF-α release)
Assay type: cell-based, human
Settings: PBMC, read-out: PDE4 inhibition (IC50, 50% inhibition of LPS-induced TNF-α release)
How it was run: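 Cryopreserved human PBMCs (10^5 cells/well) pre-incubated 30 min with compound (10^−12 to 10^−6 M or 10^−3 to 10^−7 M), then stimulated with LPS 3 ng/ml for 18 h at 37 °C. TNF-α in medium by ELISA; IC50 as mean ± 95% confidence limits.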

[1] = human PBMCs, LPS 3 ng/ml, 18 hours, TNF-α by ELISA

Structure (SMILES): O=C(O[C@@H](Cc1c(Cl)c[n+]([O-])cc1Cl)c1ccc(OC(F)F)c(OCC2CC2)c1)C1SCCN1S(=O)(=O)c1cccc(F)c1 (stereo partly drawn) [Compound 60, 3,5-dichloro-4-((2S)-2-(3-(cyclopropylmethoxy)-4-(difluoromethoxy)phenyl)-2-(3-(3-fluorophenylsulfonyl)thiazolidine-2-carbonyloxy)ethyl)pyridine 1-oxide]
- IC50 [1]: 0.1 to 1 nM

Structure (SMILES): O=C(O[C@@H](Cc1c(Cl)c[n+]([O-])cc1Cl)c1ccc(OC(F)F)c(OCC2CC2)c1)[C@@H]1SCCN1S(=O)(=O)c1ccco1 [Compound 95, 3,5-dichloro-4-((S)-2-(3-(cyclopropylmethoxy)-4-(difluoromethoxy)phenyl)-2-((S)-3-(furan-2-ylsulfonyl)thiazolidine-2-carbonyloxy)ethyl)pyridine 1-oxide]
- IC50 [1]: < 0.1 nM

Structure (SMILES): Nc1ccc(S(=O)(=O)N2CCS[C@@H]2C(=O)O[C@@H](Cc2c(Cl)c[n+]([O-])cc2Cl)c2ccc(OC(F)F)c(OCC3CC3)c2)cc1 [Compound 151, 4-((S)-2-((R)-3-(4-aminophenylsulfonyl)thiazolidine-2-carbonyloxy)-2-(3-(cyclopropylmethoxy)-4-(difluoromethoxy)phenyl)ethyl)-3,5-dichloropyridine 1-oxide]
- IC50 (Homo sapiens, 18 h): 0.1 to 1 nM

Structure (SMILES): O=C(O[C@@H](Cc1c(Cl)c[n+]([O-])cc1Cl)c1ccc(OC(F)F)c(OCC2CC2)c1)C1SCCN1C(=O)c1cnco1 (stereo partly drawn) [Compound 35, 3,5-dichloro-4-((2S)-2-(3-(cyclopropylmethoxy)-4-(difluoromethoxy)phenyl)-2-(3-(oxazole-5-carbonyl)thiazolidine-2-carbonyloxy)ethyl)pyridine 1-oxide]
- IC50 [1]: < 0.1 nM

Structure (SMILES): O=C(O[C@@H](Cc1c(Cl)c[n+]([O-])cc1Cl)c1ccc(OC(F)F)c(OCC2CC2)c1)[C@@H]1SCCN1S(=O)(=O)c1ccccc1 [Compound 89, 3,5-dichloro-4-((S)-2-(3-(cyclopropylmethoxy)-4-(difluoromethoxy)phenyl)-2-((S)-3-(phenylsulfonyl)thiazolidine-2-carbonyloxy)ethyl)pyridine 1-oxide]
- IC50 [1]: 0.1 to 1 nM

Structure (SMILES): NCCc1ccc(C(=O)N2CCSC2C(=O)O[C@@H](Cc2c(Cl)c[n+]([O-])cc2Cl)c2ccc(OC(F)F)c(OCC3CC3)c2)cc1 (stereo partly drawn) [Compound 22, 4-((2S)-2-(3-(4-(2-aminoethyl)benzoyl)thiazolidine-2-carbonyloxy)-2-(3-(cyclopropylmethoxy)-4-(difluoromethoxy)phenyl)ethyl)-3,5-dichloropyridine 1-oxide]
- IC50 [1]: 0.1 to 1 nM

Structure (SMILES): O=C(O[C@@H](Cc1c(Cl)c[n+]([O-])cc1Cl)c1ccc(OC(F)F)c(OCC2CC2)c1)[C@@H]1SCCN1S(=O)(=O)c1c[nH]c(C(=O)N2CCCC2)c1 [Compound 242, 3,5-dichloro-4-((S)-2-(3-(cyclopropylmethoxy)-4-(difluoromethoxy)phenyl)-2-((S)-3-(5-(pyrrolidine-1-carbonyl)-1H-pyrrol-3-ylsulfonyl)thiazolidine-2-carbonyloxy)ethyl)pyridine 1-oxide]
- IC50 [1]: < 0.1 nM

Structure (SMILES): O=C(O[C@@H](Cc1c(Cl)c[n+]([O-])cc1Cl)c1ccc(OC(F)F)c(OCC2CC2)c1)[C@@H]1SCCN1S(=O)(=O)c1cccc(OC(F)(F)F)c1 [Compound 104, 3,5-dichloro-4-((S)-2-(3-(cyclopropylmethoxy)-4-(difluoromethoxy)phenyl)-2-((S)-3-(3-(trifluoromethoxy)phenylsulfonyl)thiazolidine-2-carbonyloxy)ethyl)pyridine 1-oxide]
- IC50 [1]: 0.1 to 1 nM

Structure (SMILES): COc1ccc(S(=O)(=O)N2CCS[C@H]2C(=O)O[C@@H](Cc2c(Cl)c[n+]([O-])cc2Cl)c2ccc(OC(F)F)c(OCC3CC3)c2)cc1OC [Compound 93, 3,5-dichloro-4-((S)-2-(3-(cyclopropylmethoxy)-4-(difluoromethoxy)phenyl)-2-((S)-3-(3,4-dimethoxyphenylsulfonyl)thiazolidine-2-carbonyloxy)ethyl)pyridine 1-oxide]
- IC50 [1]: < 0.1 nM

Structure (SMILES): COc1cc(C)ccc1S(=O)(=O)N1CCS[C@H]1C(=O)O[C@@H](Cc1c(Cl)c[n+]([O-])cc1Cl)c1ccc(OC(F)F)c(OCC2CC2)c1 [Compound 106, 3,5-dichloro-4-((S)-2-(3-(cyclopropylmethoxy)-4-(difluoromethoxy)phenyl)-2-((S)-3-(2-methoxy-4-methylphenylsulfonyl)thiazolidine-2-carbonyloxy)ethyl)pyridine 1-oxide]
- IC50 [1]: < 0.1 nM

Structure (SMILES): NS(=O)(=O)c1cccc(S(=O)(=O)N2CCS[C@H]2C(=O)O[C@@H](Cc2c(Cl)c[n+]([O-])cc2Cl)c2ccc(OC(F)F)c(OCC3CC3)c2)c1 [Compound 91, 3,5-dichloro-4-((S)-2-(3-(cyclopropylmethoxy)-4-(difluoromethoxy)phenyl)-2-((S)-3-(3-sulfamoylphenylsulfonyl)thiazolidine-2-carbonyloxy)ethyl)pyridine 1-oxide]
- IC50 [1]: < 0.1 nM

Structure (SMILES): CN(C)C(=O)c1cccc(CS(=O)(=O)N2CCS[C@H]2C(=O)O[C@@H](Cc2c(Cl)c[n+]([O-])cc2Cl)c2ccc(OC(F)F)c(OCC3CC3)c2)c1 [Compound 295, 3,5-dichloro-4-((S)-2-(3-(cyclopropylmethoxy)-4-(difluoro-methoxy)phenyl)-2-((S)-3-(3-(dimethylcarbamoyl)benzylsulfonyl)-thiazolidine-2-carbonyloxy)ethyl)pyridine 1-oxide]
- IC50 [1]: 0.1 to 1 nM

Structure (SMILES): O=C(O[C@@H](Cc1c(Cl)c[n+]([O-])cc1Cl)c1ccc(OC(F)F)c(OCC2CC2)c1)C1SCCN1S(=O)(=O)c1ccccc1 (stereo partly drawn) [Compound 57, 3,5-dichloro-4-((2S)-2-(3-(cyclopropylmethoxy)-4-(difluoromethoxy)phenyl)-2-(3-(phenylsulfonyl)thiazolidine-2-carbonyloxy)ethyl)pyridine 1-oxide]
- IC50 [1]: 0.1 to 1 nM

Structure (SMILES): Cn1ccnc1S(=O)(=O)N1CCS[C@H]1C(=O)O[C@@H](Cc1c(Cl)c[n+]([O-])cc1Cl)c1ccc(OC(F)F)c(OCC2CC2)c1 [Compound 90, 3,5-dichloro-4-((S)-2-(3-(cyclopropylmethoxy)-4-(difluoromethoxy)phenyl)-2-((S)-3-(1-methyl-1H-imidazol-2-ylsulfonyl)thiazolidine-2-carbonyloxy)ethyl)pyridine 1-oxide]
- IC50 [1]: < 0.1 nM

Structure (SMILES): CN1CCOc2ccc(S(=O)(=O)N3CCC[C@H]3C(=O)O[C@@H](Cc3c(Cl)c[n+]([O-])cc3Cl)c3ccc(OC(F)F)c(OCC4CC4)c3)cc21 [Compound 250, 3,5-dichloro-4-((S)-2-(3-(cyclopropylmethoxy)-4-(difluoromethoxy)phenyl)-2-((S)-1-(4-methyl-3,4-dihydro-2H-benzo[b][1,4]oxazin-6-ylsulfonyl)pyrrolidine-2-carbonyloxy)ethyl)pyridine 1-oxide]
- IC50 [1]: < 0.1 nM

Structure (SMILES): Cn1ccnc1S(=O)(=O)N1CCC[C@H]1C(=O)O[C@@H](Cc1c(Cl)c[n+]([O-])cc1Cl)c1ccc(OC(F)F)c(OCC2CC2)c1 [Compound 155, 3,5-dichloro-4-((S)-2-(3-(cyclopropylmethoxy)-4-(difluoromethoxy)phenyl)-2-((S)-1-(1-methyl-1H-imidazol-2-ylsulfonyl)pyrrolidine-2-carbonyloxy)ethyl)pyridine 1-oxide]
- IC50 [1]: < 0.1 nM

Structure (SMILES): CN1CCN(C(=O)c2cccc(S(=O)(=O)N3CCS[C@H]3C(=O)O[C@@H](Cc3c(Cl)c[n+]([O-])cc3Cl)c3ccc(OC(F)F)c(OCC4CC4)c3)c2)CC1 [Compound 132, 3,5-dichloro-4-((S)-2-(3-(cyclopropylmethoxy)-4-(difluoromethoxy)phenyl)-2-((S)-3-(3-(4-methylpiperazine-1-carbonyl)phenylsulfonyl)thiazolidine-2-carbonyloxy)ethyl)pyridine 1-oxide]
- IC50 [1]: < 0.1 nM

Structure (SMILES): CN(C)C(=O)c1cccc(S(=O)(=O)N2CC(C(=O)O[C@@H](Cc3c(Cl)c[n+]([O-])cc3Cl)c3ccc(OC(F)F)c(OCC4CC4)c3)C2)c1 [Compound 281, (S)-3,5-dichloro-4-(2-(3-(cyclopropylmethoxy)-4-(difluoromethoxy)phenyl)-2-(1-(3-(dimethylcarbamoyl)phenylsulfonyl)azetidine-3-carbonyloxy)ethyl)pyridine 1-oxide]
- IC50 [1]: 0.1 to 1 nM

Structure (SMILES): O=C(O[C@@H](Cc1c(Cl)c[n+]([O-])cc1Cl)c1ccc(OC(F)F)c(OCC2CC2)c1)C1SCCN1S(=O)(=O)c1ccc(F)cc1Cl (stereo partly drawn) [Compound 68, 3,5-dichloro-4-((2S)-2-(3-(2-chloro-4-fluorophenylsulfonyl)thiazolidine-2-carbonyloxy)-2-(3-(cyclopropylmethoxy)-4-(difluoromethoxy)phenyl)ethyl)pyridine 1-oxide]
- IC50 [1]: 0.1 to 1 nM

Structure (SMILES): COc1ccc(S(=O)(=O)N2CCC[C@H]2C(=O)O[C@@H](Cc2c(Cl)c[n+]([O-])cc2Cl)c2ccc(OC(F)F)c(OCC3CC3)c2)cc1C(=O)N(C)C [Compound 124, 3,5-dichloro-4-((S)-2-(3-(cyclopropylmethoxy)-4-(difluoromethoxy)phenyl)-2-((S)-1-(3-(dimethylcarbamoyl)-4-methoxyphenylsulfonyl)pyrrolidine-2-carbonyloxy)ethyl)pyridine 1-oxide]
- IC50 [1]: < 0.1 nM

Structure (SMILES): O=C(O[C@@H](Cc1c(Cl)c[n+]([O-])cc1Cl)c1ccc(OC(F)F)c(OCC2CC2)c1)[C@@H]1CCCN1S(=O)(=O)c1ccccc1 [Compound 86, 3,5-dichloro-4-((S)-2-(3-(cyclopropylmethoxy)-4-(difluoromethoxy)phenyl)-2-((S)-1-(phenylsulfonyl)pyrrolidine-2-carbonyloxy)ethyl)pyridine 1-oxide]
- IC50 [1]: 0.1 to 1 nM

Structure (SMILES): CN(C)C(=O)c1cccc(S(=O)(=O)N2CCSCC2C(=O)O[C@@H](Cc2c(Cl)c[n+]([O-])cc2Cl)c2ccc(OC(F)F)c(OCC3CC3)c2)c1 (stereo partly drawn) [Compound 80, 3,5-dichloro-4-((2S)-2-(3-(cyclopropylmethoxy)-4-(difluoromethoxy)phenyl)-2-(4-(3-(dimethylcarbamoyl)phenylsulfonyl)thiomorpholine-3-carbonyloxy)ethyl)pyridine 1-oxide]
- IC50 [1]: 0.1 to 1 nM
